What was measured:
[1] = target: T1, IDO1 (Homo sapiens, UniProt P14902); assay: IDO1 Human Whole blood Assay; format: cell-based; design: Human whole blood was drawn in sodium heparin coated tubes from healthy internal donors; from tissue; host or cells: human whole blood from healthy donors, stimulated with LPS and IFNγ; settings: LPS and IFNγ stimulated, 18 h, read-out: Human Whole Blood Potency, IC50
Method in brief: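 LC/MS/MS of kynurenine, normalized to spiked isotope-labeled standard (3 μM final), served as the readout. Beforehand, fresh human blood with compound (15 min preincubation) was stimulated overnight (18 h, 37 °C) with 100 ng/mL LPS/IFNγ. IC50 was obtained by four-parameter curve fitting.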

[2] = target: T1, IDO1; assay: IDO1 Cellular Assay in HeLa Cells Stimulated with IFNγ; format: cell-based; settings: read-out: HeLa Cell Potency, IC50

T1 sequence (P14902 whole entry): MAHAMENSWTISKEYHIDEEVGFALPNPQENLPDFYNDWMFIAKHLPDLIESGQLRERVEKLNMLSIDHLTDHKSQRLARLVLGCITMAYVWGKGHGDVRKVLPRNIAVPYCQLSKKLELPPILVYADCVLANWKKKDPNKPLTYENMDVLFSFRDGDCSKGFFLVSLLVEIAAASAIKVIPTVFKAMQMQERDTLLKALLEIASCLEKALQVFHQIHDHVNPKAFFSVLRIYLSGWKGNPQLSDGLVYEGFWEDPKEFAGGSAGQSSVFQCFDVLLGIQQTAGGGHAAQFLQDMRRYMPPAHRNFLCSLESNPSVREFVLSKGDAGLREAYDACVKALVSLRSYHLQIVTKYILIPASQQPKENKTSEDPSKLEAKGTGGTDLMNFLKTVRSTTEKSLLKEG

Row | SMILES | IC50 [1] [nM] | IC50 [2] [nM]
1 | Cc1c(F)ccc(N2CCN(C(=O)Cn3nc(C(=O)N4CC[C@H](O)[C@H](F)C4)c4c3C[C@H]3C[C@@H]43)C3(CC3)C2)c1C [Example 317, 1-[7-(4-fluoro-2,3-dimethylphenyl)-4,7-diazaspiro[2.5]octan-4-yl]-2-{(3bR,4aR)-3-[(3R,4S)-3-fluoro-4-hydroxypiperidine-1-carbonyl]-3b,4,4a,5-tetrahydro-1H-cyclopropa[3,4]cyclopenta[1,2-c]pyrazol-1-yl}ethan-1-one] | 205 | 1.65
2 | Cc1c(F)ccc(N2CCN(C(=O)Cn3nc(C(=O)N4CCN(C(=O)CO)CC4)c4c3C[C@H]3C[C@@H]43)C3(CC3)C2)c1C [Example 319, 1-[7-(4-fluoro-2,3-dimethylphenyl)-4,7-diazaspiro[2.5]octan-4-yl]-2-{(3bR,4aR)-3-[4-(hydroxyacetyl)piperazine-1-carbonyl]-3b,4,4a,5-tetrahydro-1H-cyclopropa[3,4]cyclopenta[1,2-c]pyrazol-1-yl}ethan-1-one] | 452 | 1.31
3 | CC(=O)NC1CCN(C(=O)c2nn(CC(=O)N3CCN(c4ccc(F)c(C)c4C)CC34CC4)c3c2[C@@H]2C[C@@H]2C3)CC1 [Example 320, N-{1-[(3bR,4aR)-1-{2-[7-(4-fluoro-2,3-dimethylphenyl)-4,7-diazaspiro[2.5]octan-4-yl]-2-oxoethyl}-3b,4,4a,5-tetrahydro-1H-cyclopropa[3,4]cyclopenta[1,2-c]pyrazole-3-carbonyl]piperidin-4-yl}acetamide] | 347 | 1.31
4 | Cc1c(F)ccc(N2CCN(C(=O)Cn3nc(C(=O)N4CCC(OCCO)CC4)c4c3C[C@H]3C[C@@H]43)C3(CC3)C2)c1C [Example 321, 1-[7-(4-fluoro-2,3-dimethylphenyl)-4,7-diazaspiro[2.5]octan-4-yl]-2-{(3bR,4aR)-3-[4-(2-hydroxyethoxy)piperidine-1-carbonyl]-3b,4,4a,5-tetrahydro-1H-cyclopropa[3,4]cyclopenta[1,2-c]pyrazol-1-yl}ethan-1-one] | 508 | 1.47
5 | Cc1c(F)ccc(N2CCN(C(=O)Cn3nc(C(=O)N4CCN(CC(N)=O)CC4)c4c3C[C@H]3C[C@@H]43)C3(CC3)C2)c1C [Example 322, 2-{4-[(3bR,4aR)-1-{2-[7-(4-fluoro-2,3-dimethylphenyl)-4,7-diazaspiro[2.5]octan-4-yl]-2-oxoethyl}-3b,4,4a,5-tetrahydro-1H-cyclopropa[3,4]cyclopenta[1,2-c]pyrazole-3-carbonyl]piperazin-1-yl}acetamide] | 1050 | 1.6
6 | Cc1c(F)ccc(N2CCN(C(=O)Cn3nc(C(=O)N4CCC(O)(CO)CC4)c4c3C[C@H]3C[C@@H]43)C3(CC3)C2)c1C [Example 323, 1-[7-(4-fluoro-2,3-dimethylphenyl)-4,7-diazaspiro[2.5]octan-4-yl]-2-{(3bR,4aR)-3-[4-hydroxy-4-(hydroxymethyl)piperidine-1-carbonyl]-3b,4,4a,5-tetrahydro-1H-cyclopropa[3,4]cyclopenta[1,2-c]pyrazol-1-yl}ethan-1-one] | 1800 | 0.69
7 | Cc1cccc(N2CCN(C(=O)Cn3nc(C(=O)N4CCC(O)C(F)C4)c4c3CCC4)C3(CC3)C2)c1C (stereo not shown) [Example 325, 1-[7-(2,3-dimethylphenyl)-4,7-diazaspiro[2.5]octan-4-yl]-2-[3-(3-fluoro-4-hydroxy-piperidine-1-carbonyl)-5,6-dihydro-4H-cyclopenta[c]pyrazol-1-yl]ethanone] | 625 | 4.08
8 | Cc1cccc(N2CCN(C(=O)Cn3nc(C(=O)N4CC[C@H](O)[C@H](F)C4)c4c3C[C@H]3C[C@@H]43)C(C)(C)C2)c1C [Example 331, 1-[4-(2,3-dimethylphenyl)-2,2-dimethylpiperazin-1-yl]-2-{(3bR,4aR)-3-[(3R,4S)-3-fluoro-4-hydroxypiperidine-1-carbonyl]-3b,4,4a,5-tetrahydro-1H-cyclopropa[3,4]cyclopenta[1,2-c]pyrazol-1-yl}ethan-1-one] | 9120 | 84.5
9 | Cc1cccc(N2CCN(C(=O)Cn3nc(C(=O)N4CCC(O)(CF)CC4)c4c3C[C@H]3C[C@@H]43)C(C)(C)C2)c1C [Example 332, 1-[4-(2,3-dimethylphenyl)-2,2-dimethylpiperazin-1-yl]-2-{(3bR,4aR)-3-[4-(fluoromethyl)-4-hydroxypiperidine-1-carbonyl]-3b,4,4a,5-tetrahydro-1H-cyclopropa[3,4]cyclopenta[1,2-c]pyrazol-1-yl}ethan-1-one] | 9490 | 70
10 | Cc1cccc(N2CCN(C(=O)Cn3nc(C(=O)N4CCC5(CO)CC4C5)c4c3C[C@H]3C[C@@H]43)C(C)(C)C2)c1C [Example 333, 1-[4-(2,3-dimethylphenyl)-2,2-dimethylpiperazin-1-yl]-2-{(3bR,4aR)-3-[5-(hydroxymethyl)-2-azabicyclo[3.1.1]heptane-2-carbonyl]-3b,4,4a,5-tetrahydro-1H-cyclopropa[3,4]cyclopenta[1,2-c]pyrazol-1-yl}ethan-1-one] | > 10000 | 8.73
11 | Cc1cccc(N2CCN(C(=O)Cn3nc(C(=O)N4CCC(O)CC4)c4c3C[C@H]3C[C@@H]43)[C@@H](C)C2)c1C [Example 334, 1-[(2S)-4-(2,3-dimethylphenyl)-2-methylpiperazin-1-yl]-2-[(3bR,4aR)-3-(4-hydroxypiperidine-1-carbonyl)-3b,4,4a,5-tetrahydro-1H-cyclopropa[3,4]cyclopenta[1,2-c]pyrazol-1-yl]ethan-1-one] | 4070 | 1.38
12 | Cc1cccc(N2CCN(C(=O)Cn3nc(C(=O)N4CCC(O)CC4)c4c3C[C@H]3C[C@@H]43)[C@H](C)C2)c1C [Example 335, 1-[(2R)-4-(2,3-dimethylphenyl)-2-methylpiperazin-1-yl]-2-[(3bR,4aR)-3-(4-hydroxypiperidine-1-carbonyl)-3b,4,4a,5-tetrahydro-1H-cyclopropa[3,4]cyclopenta[1,2-c]pyrazol-1-yl]ethan-1-one] | 587 | 2.75
13 | Cc1c(N2CCN(C(=O)Cn3nc(C(=O)N4CCC(O)CC4)c4c3C[C@H]3C[C@@H]43)CC2)cccc1C(F)(F)F [Example 338, 2-((3bR,4aR)-3-(4-hydroxypiperidine-1-carbonyl)-3b,4,4a,5-tetrahydro-1H-cyclopropa[3,4]cyclopenta[1,2-c]pyrazol-1-yl)-1-(4-(2-methyl-3-(trifluoromethyl)phenyl)piperazin-1-yl)ethanone] | 131 | 1.65
14 | Cc1c(N2CCN(C(=O)Cn3nc(C(=O)N4CC[C@@H](O)[C@@H](F)C4)c4c3C[C@H]3C[C@@H]43)CC2)cccc1C(F)(F)F [Example 339, 2-((3bR,4aR)-3-((3S,4R)-3-fluoro-4-hydroxypiperidine-1-carbonyl)-3b,4,4a,5-tetrahydro-1H-cyclopropa[3,4]cyclopenta[1,2-c]pyrazol-1-yl)-1-(4-(2-methyl-3-(trifluoromethyl)phenyl)piperazin-1-yl)ethanone] | 229 | 1.81
15 | Cc1c(Cl)cccc1N1CCN(C(=O)Cn2nc(C(=O)N3CCN(C(=O)CO)CC3)c3c2C[C@H]2C[C@@H]32)CC1 [Example 352, 1-(4-(3-chloro-2-methylphenyl)piperazin-1-yl)-2-((3bR,4aR)-3-(4-(2-hydroxyacetyl)piperazine-1-carbonyl)-3b,4,4a,5-tetrahydro-1H-cyclopropa[3,4]cyclopenta[1,2-c]pyrazol-1-yl)ethanone] | 79 | 1.17
16 | Cc1cccc(N2CCN(C(=O)Cn3nc(C(=O)N4CCN(C(=O)CO)CC4)c4c3C[C@H]3C[C@@H]43)C3(CC3)C2)c1C [Example 355, 1-(4-((3bR,4aR)-1-(2-(7-(2,3-dimethylphenyl)-4,7-diazaspiro[2.5]octan-4-yl)-2-oxoethyl)-3b,4,4a,5-tetrahydro-1H-cyclopropa[3,4]cyclopenta[1,2-c]pyrazole-3-carbonyl)piperazin-1-yl)-2-hydroxyethanone] | 829 | 0.94
17 | Cc1cccc(N2CCN(C(=O)Cn3nc(C(=O)N4CCC(O)CC4)c4c3C[C@H]3C[C@@H]43)C3(CC3)C2)c1C [Example 357, 1-(7-(2,3-dimethylphenyl)-4,7-diazaspiro[2.5]octan-4-yl)-2-((3bR,4aR)-3-(4-hydroxypiperidine-1-carbonyl)-3b,4,4a,5-tetrahydro-1H-cyclopropa[3,4]cyclopenta[1,2-c]pyrazol-1-yl)ethanone] | 1870 | 0.89
18 | Cc1cccc(N2CCN(C(=O)Cn3nc(C(=O)N4CCO[C@@H](CO)C4)c4c3C[C@H]3C[C@@H]43)C3(CC3)C2)c1C [Example 360, 1-(7-(2,3-dimethylphenyl)-4,7-diazaspiro[2.5]octan-4-yl)-2-((3bR,4aR)-3-((R)-2-(hydroxymethyl)morpholine-4-carbonyl)-3b,4,4a,5-tetrahydro-1H-cyclopropa[3,4]cyclopenta[1,2-c]pyrazol-1-yl)ethanone] | 3870 | 1.17
19 | Cc1cccc(N2CCN(C(=O)Cn3nc(C(=O)N4CCC(F)(CO)CC4)c4c3C[C@H]3C[C@@H]43)C3(CC3)C2)c1C [Example 362, 1-(7-(2,3-dimethylphenyl)-4,7-diazaspiro[2.5]octan-4-yl)-2-((3bR,4aR)-3-(4-fluoro-4-(hydroxymethyl)piperidine-1-carbonyl)-3b,4,4a,5-tetrahydro-1H-cyclopropa[3,4]cyclopenta[1,2-c]pyrazol-1-yl)ethanone] | 335 | 0.8
20 | Cc1c(Cl)cccc1N1CCN(C(=O)Cn2nc(C(=O)N3CCC(O)CC3)c3c2CCC(F)C3)CC1 (stereo not shown) [Example 366, 1-(4-(3-chloro-2-methylphenyl)piperazin-1-yl)-2-(5-fluoro-3-(4-hydroxypiperidine-1-carbonyl)-4,5,6,7-tetrahydro-1H-indazol-1-yl)ethan-1-one] | 141 | 2.33
